# Source: ChEMBL document CHEMBL6177991, “Discovery of P11-2: A Potent First-in-Class MNK1-Targeting PROTAC Degrader for the Treatment of Cancer” (J Med Chem, 2025)
# The source made the active and inactive calls. The calls are words filed in the database; no cut-off is given here.
# How the values were obtained:
# [1] = Toxicity in male ICR mouse assessed as change in serum TBIL level at 100 mg/kg, ip measured after 14 days; format: organism-based; conditions: in vivo, 336 h, time 14 day
# [2] = Toxicity in male ICR mouse assessed as histopathological change in heart at 100 mg/kg, ip measured after 14 days by hematoxylin and eosin staining based analysis; format: organism-based; conditions: in vivo, 336 h, time 14 day
# [3] = Toxicity in male ICR mouse assessed as change in serum ALT level at 100 mg/kg, ip measured after 14 days; format: organism-based; conditions: in vivo, 336 h, time 14 day
# [4] = Cmax in male Sprague-Dawley rat at 5 mg/kg, ip measured up to 24 hrs by LC-MS analysis; format: ADME, organism-based; conditions: in vivo
# [5] = Hepatotoxicity in nude female NSG mouse xenografted with human MV4-11 cells assessed as change in serum TBIL level at 20 mg/kg, ip qd administrated for 16 days; format: toxicity, organism-based; conditions: in vivo, 384 h, time 16 day
# MDA-MB-231 = assay: Anti-proliferative activity against human MDA-MB-231 cells measured after 96 hrs by CCK8 assay; conditions: MDA-MB-231, 96 h
# MV4-11 [6] = assay: Effect on IKZF1 expression in human MV4-11 cells at 10 to 1000 nM incubated for 24 hrs by immunoblot analysis; format: functional, cell-based; conditions: dose 10-1000 nM
# [7] = AUC (0 to t) in male Sprague-Dawley rat at 5 mg/kg, ip measured up to 24 hrs by LC-MS analysis; format: ADME, organism-based; conditions: in vivo
# MV4-11 [8] = assay: Induction of apoptosis in human MV4-11 cells assessed as late apoptotic cells at 100 nM incubated for 24 hrs by Annexin V-FITC/PI dual staining based flow cytometric analysis (reference value: 1.48 %); format: functional
# [9] = Hepatotoxicity in nude female NSG mouse xenografted with human MV4-11 cells assessed as change in serum ALP level at 20 mg/kg, ip qd administrated for 16 days; format: toxicity, organism-based; conditions: in vivo, 384 h, time 16 day
# [10] = Tmax in male Sprague-Dawley rat at 20 mg/kg, po measured up to 24 hrs by LC-MS analysis; format: ADME, organism-based; conditions: in vivo
# [11] = Toxicity in male ICR mouse assessed as change in serum uric acid level at 100 mg/kg, ip measured after 14 days; format: organism-based; conditions: in vivo, 336 h, time 14 day
# MV4-11 [12] = assay: Upregulation of mTOR pathway related protein expression in human MV4-11 cells by KEGG analysis; format: functional, cell-based
# MV4-11 [13] = assay: Induction of apoptosis in human MV4-11 cells assessed as necrotic cells at 100 nM incubated for 24 hrs by Annexin V-FITC/PI dual staining based flow cytometric analysis (reference value: 0.16 %); format: functional
# [14] = Clearance in male Sprague-Dawley rat at 1 mg/kg, iv measured up to 24 hrs by LC-MS analysis; format: ADME, organism-based; conditions: in vivo
# MV4-11 [15] = assay: Induction of apoptosis in human MV4-11 cells assessed as late apoptotic cells at 300 nM incubated for 24 hrs by Annexin V-FITC/PI dual staining based flow cytometric analysis (reference value: 1.48 %); format: functional
# MV4-11 [16] = assay: Induction of cell cycle arrest in human MV4-11 cells assessed as increase in accumulation of cells at G1 phase at 30 to […] incubated for 24 hrs by PI staining based flow cytometric analysis; format: functional; conditions: dose lower 30.0 µM
# [17] = Cmax in male Sprague-Dawley rat at 20 mg/kg, po measured up to 24 hrs by LC-MS analysis; format: ADME, organism-based; conditions: in vivo
# [18] = AUC (0 to t) in male Sprague-Dawley rat at 20 mg/kg, po measured up to 24 hrs by LC-MS analysis; format: ADME, organism-based; conditions: in vivo
# MV4-11 [19] = assay: Upregulation of ubiquitin-mediated protein degradation pathway related protein expression in human MV4-11 cells by GO analysis; format: functional, cell-based
# [20] = Clearance in male Sprague-Dawley rat at 5 mg/kg, ip measured up to 24 hrs by LC-MS analysis; format: ADME, organism-based; conditions: in vivo
# MV4-11 [21] = assay: Anti-proliferative activity against human MV4-11 cells measured after 72 hrs by CCK8 assay; conditions: MV4-11, 72 h
# MV4-11 [22] = assay: Induction of apoptosis in human MV4-11 cells assessed as early apoptotic cells at 300 nM incubated for 24 hrs by Annexin V-FITC/PI dual staining based flow cytometric analysis (reference value: 3.42 %); format: functional
# MV4-11 [23] = assay: Downregulation of SUFU expression level in human MV4-11 cells at 300 nM incubated for 24 hrs by DIA-based quantitative proteomics analysis; format: functional, cell-based
# MV4-11 [24] = assay: Induction of apoptosis in human MV4-11 cells assessed as viable cells at 30 nM incubated for 24 hrs by Annexin V-FITC/PI dual staining based flow cytometric analysis (reference value: 94.9 %); format: functional; conditions: read-out: Activity
# [25] = AUC (0 to t) in male Sprague-Dawley rat at 1 mg/kg, iv measured up to 24 hrs by LC-MS analysis; format: ADME, organism-based; conditions: in vivo
# [26] = Toxicity in male ICR mouse assessed as change in serum AST level at 100 mg/kg, ip measured after 14 days; format: organism-based; conditions: in vivo, 336 h, time 14 day
# [27] = Toxicity in nude female NSG mouse xenografted with human MV4-11 cells assessed as change in serum BUN level at 20 mg/kg, ip qd administrated for 16 days; format: organism-based; conditions: in vivo, 384 h, time 16 day
# MV4-11 [28] = assay: Upregulation of mTOR pathway related protein expression in human MV4-11 cells by GO analysis; format: functional, cell-based
# Mus musculus = assay: In vivo PROTAC activity at CRBN/MNK1 in human MV4-11 cells xenografted in nude female NSG mouse assessed as reduction in phosphorylated eIF4E level at 20 mg/kg, ip qd administrated for 16 days by Western blot analysis; format: functional, organism-based; conditions: time 16.0 day
# [29] = Toxicity in male ICR mouse assessed as change in serum ALP level at 100 mg/kg, ip measured after 14 days; format: organism-based; conditions: in vivo, 336 h, time 14 day
# MV4-11 [30] = assay: Upregulation of protein translation pathway related protein expression in human MV4-11 cells by GO analysis; format: functional, cell-based
# [31] = target: Protein cereblon/MAP kinase-interacting serine/threonine-protein kinase 2 (Homo sapiens, UniProt Q96SW2+Q9HBH9); assay: PROTAC activity at CRBN/MNK2 in human MV4-11 cells assessed as inhibition of phosphorylated eIF4E level incubated for 24 hrs by immunoblot analysis; format: cell-based
# [32] = Toxicity in male ICR mouse assessed as change in serum DBIL level at 100 mg/kg, ip measured after 14 days; format: organism-based; conditions: in vivo, 336 h, time 14 day
# MV4-11 [33] = assay: Induction of apoptosis in human MV4-11 cells assessed as viable cells at 100 nM incubated for 24 hrs by Annexin V-FITC/PI dual staining based flow cytometric analysis (reference value: 94.9 %); format: functional; conditions: read-out: Activity
# [34] = Toxicity in male ICR mouse assessed as change in serum CK-MB level at 100 mg/kg, ip measured after 14 days; format: organism-based; conditions: in vivo, 336 h, time 14 day
# MV4-11 [35] = assay: Downregulation of C9orf40 expression level in human MV4-11 cells at 300 nM incubated for 24 hrs by DIA-based quantitative proteomics analysis; format: functional, cell-based
# [36] = Oral bioavailability in male Sprague-Dawley rat at 20 mg/kg measured up to 24 hrs by LC-MS analysis; format: ADME, organism-based; conditions: in vivo
# MV4-11 [37] = assay: Upregulation of apoptosis pathway related protein expression in human MV4-11 cells by GO analysis; format: functional, cell-based
# MV4-11 [38] = assay: Upregulation of PI3K-Akt pathway related protein expression in human MV4-11 cells by KEGG analysis; format: functional, cell-based
# Chain of Protein cereblon/MAP kinase-interacting serine/threonine-protein kinase 2 (Q9HBH9 whole entry): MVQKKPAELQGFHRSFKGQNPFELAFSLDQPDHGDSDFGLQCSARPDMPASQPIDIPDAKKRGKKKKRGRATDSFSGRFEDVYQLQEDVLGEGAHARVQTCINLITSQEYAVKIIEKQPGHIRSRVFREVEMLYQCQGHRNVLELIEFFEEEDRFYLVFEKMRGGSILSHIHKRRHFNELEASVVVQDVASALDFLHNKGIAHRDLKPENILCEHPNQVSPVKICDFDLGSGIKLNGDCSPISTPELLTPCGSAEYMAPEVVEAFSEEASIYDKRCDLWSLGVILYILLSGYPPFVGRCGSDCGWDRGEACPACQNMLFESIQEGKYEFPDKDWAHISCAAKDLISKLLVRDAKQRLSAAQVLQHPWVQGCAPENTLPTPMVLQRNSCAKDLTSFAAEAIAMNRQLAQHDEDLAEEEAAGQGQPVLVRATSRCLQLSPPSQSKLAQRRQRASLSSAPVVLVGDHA
# Chain of Protein cereblon/MAP kinase-interacting serine/threonine-protein kinase 2 (Q96SW2 whole entry): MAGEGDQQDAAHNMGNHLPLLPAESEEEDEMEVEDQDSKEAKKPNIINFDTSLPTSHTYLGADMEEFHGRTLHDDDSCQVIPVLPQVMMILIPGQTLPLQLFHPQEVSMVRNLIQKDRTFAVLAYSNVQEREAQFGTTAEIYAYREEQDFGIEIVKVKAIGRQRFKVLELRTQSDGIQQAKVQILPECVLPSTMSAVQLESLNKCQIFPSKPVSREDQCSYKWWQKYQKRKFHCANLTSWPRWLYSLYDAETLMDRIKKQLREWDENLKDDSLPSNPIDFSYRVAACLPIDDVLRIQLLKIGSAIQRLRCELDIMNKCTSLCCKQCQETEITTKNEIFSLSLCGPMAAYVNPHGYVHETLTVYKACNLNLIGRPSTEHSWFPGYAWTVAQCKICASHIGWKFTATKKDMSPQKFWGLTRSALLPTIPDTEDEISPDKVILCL
structure (smiles),measurement,setting,value
O=C1CCC(N2Cc3c(NC(=O)CCCCCC(=O)N4CCC(C(=O)Nc5ncc(-c6ccccc6)s5)CC4)cccc3C2=O)C(=O)N1 (stereo not given),Activity,[1],Non-toxic
same,Activity,[2],Non-toxic
same,Activity,[3],Non-toxic
same,Cmax,[4],1970 ng/mL
same,Activity,[5],Non-toxic
same,IC50,MDA-MB-231,2060 nM
same,Activity,MV4-11 [6],No effect
same,AUC(0-t) at 24 h,[7],9630 ng·h/mL
same,Activity,MV4-11 [8],13.7%
same,Activity,[9],Non-toxic
same,Tmax,[10],1.4 h
same,Activity,[11],Non-toxic
same,Activity,MV4-11 [12],Active
same,Activity,MV4-11 [13],0.69%
same,clearance,[14],2.38 mL/min/kg
same,Activity,MV4-11 [15],42.1%
same,Activity,MV4-11 [16],Active
same,Cmax,[17],160 ng/mL
same,AUC(0-t) at 24 h,[18],2950 ng·h/mL
same,Activity,MV4-11 [19],Active
same,CL/F,[20],8.75 mL/min/kg
same,IC50,MV4-11 [21],45 nM
same,Activity,MV4-11 [22],28.6%
same,Activity,MV4-11 [23],Active
same,viability at 0.03 µM,MV4-11 [24],85.8%
same,AUC(0-t) at 24 h,[25],7020 ng·h/mL
same,Activity,[26],Non-toxic
same,Activity,[27],Non-toxic
same,Activity,MV4-11 [28],Active
same,Activity,Mus musculus,Active
same,Activity,[29],Non-toxic
same,Activity,MV4-11 [30],Active
same,IC50,[31],22.1 nM
same,Activity,[32],Non-toxic
same,viability at 0.1 µM,MV4-11 [33],71.5%
same,Activity,[34],Non-toxic
same,Activity,MV4-11 [35],Active
same,bioavailability,[36],2.1%
same,Activity,MV4-11 [37],Active
same,Activity,MV4-11 [38],Active
